According to patent US20260183286A1, “Compositions and Methods for an Oral Supplement to Oral Minoxidil for the Treatment of Alopecia” (FOLLEA INTERNATIONAL, priority 2023, published 2026):

Tested on: SLC22A9
Assay: Placebo controlled study of ammonium chloride oral supplement: SLC22A9 expression from hair follicles
Format: in vivo
Conditions: 268 mg ammonium chloride oral supplement daily for 5 days; measured at baseline and day 5; 10 subjects active vs 10 placebo; p=0.01
Description: A placebo controlled study was conducted with a 268 mg ammonium chloride oral supplement to ascertain increase in SLC22A9 up-regulation. Ten subjects were administered the placebo and 10 subjects were administered ammonium chloride daily for 5 days. The SLC22A9 expression from hair follicles was measured at baseline and day 5. SLC22A9 increased 3 folds and was statistically significant p=0.01 increased in the active vs placebo group.

Cl.N [ammonium chloride]
SLC22A9 expression from hair follicles, increase: 3 folds
